{"source": "paper PMC8635125", "about": "“A Novel Dibenzoxazepine Attenuates Intracellular Salmonella Typhimurium Oxidative Stress Resistance” (Microbiology Spectrum, 2021)", "key": {"S. Typhimurium 0911R": {"test_system": "S. Typhimurium 0911R", "test": "microbe, parasite or virus in culture", "assay_type": "cell-based, Salmonella Typhimurium", "details": "for R/I/S: Table S1(A), 0911R, CLSI criteria; for MIC: Salmonella enterica, TYPHIMURIUM", "protocol": "(§1) The minimal inhibitory concentration (MIC) of each test compound against the individual bacterial strains was determined by the broth microdilution method following the guidelines recommended by the Clinical and Laboratory Standards Institute (CLSI) ([27])."}, "S. Typhimurium NL08.10": {"test_system": "S. Typhimurium NL08.10", "test": "MIC assay (broth microdilution)", "assay_type": "cell-based, Salmonella Typhimurium", "details": "Table S1(A); for R/I/S: NL08.10, CLSI criteria; for MIC: Salmonella enterica, TYPHIMURIUM, NL08.10, read-out: MIC", "protocol": "as §1"}, "[1]": {"test_system": "S. Typhimurium ATCC 14028", "test": "MIC assay (broth microdilution)", "assay_type": "cell-based, Salmonella Typhimurium", "details": "for MIC: Salmonella enterica; for R/I/S: ATCC 14028, CLSI criteria", "protocol": "as §1"}, "S. Typhimurium SA10": {"test_system": "S. Typhimurium SA10", "test": "MIC assay (broth microdilution)", "assay_type": "cell-based, Salmonella Typhimurium", "details": "Table S1(B); for MIC: Salmonella enterica, TYPHIMURIUM, SA10; for R/I/S: SA10, CLSI criteria", "protocol": "as §1"}, "S. Typhimurium SB10": {"test_system": "S. Typhimurium SB10", "test": "MIC assay (broth microdilution)", "assay_type": "cell-based, Salmonella Typhimurium", "details": "Table S1(B); for MIC: Salmonella enterica, TYPHIMURIUM, SB10, read-out: MIC; for R/I/S: SB10, CLSI criteria", "protocol": "as §1"}, "[2]": {"test_system": "intracellular S. Typhimurium in RAW264.7 macrophages", "test": "microbe, parasite or virus in culture", "assay_type": "cell-based, Salmonella enterica serovar Typhimurium", "details": "for survival of intracellular Salmonella in macrophages, antibiotic alone: RAW264.7, 24 h", "protocol": "(§2) Overnight cultures of RFP-expressing S. Typhimurium were prepared for infection by 1:100 dilution in fresh LB broth and incubation for 2 h at 37°C. The bacteria were then collected by centrifugation at 6,000 × g for 3 min and suspended in phosphate-buffered saline (PBS; pH 7.2) to an optical density of 0.6 at 600 nm, which was equivalent to 5 × 10^8 CFU/mL. RAW264.7 macrophages were seeded in 96-well black clear-bottom plates (Greiner) and incubated for 20 h followed by infection with RFP-expressing S. Typhimurium at a multiplicity of infection (MOI) of 50 for 1 h. […] Afterward, the cells were washed and stained with CellTracker Green (Thermo Fisher Scientific) for 30 min in serum-free DMEM followed by fixation in 3.7% formaldehyde (Sigma-Aldrich) for 20 min and stained with 0.2 mg/L DAPI (4′,6-diamidino-2-phenylindole; AAT Bioquest) for 30 min. Images of individual wells were captured and analyzed using a high-content imaging system (ImageXpress Micro 4; Molecular Devices). The CC50 and 50% effective concentration (EC50) values against intracellular bacteria of each compound were determined using CalcuSyn software (Biosoft)."}, "[3]": {"test": "HCA cytotoxicity toward infected macrophages (nuclear staining)", "assay_type": "cell-based, murine", "details": "mouse, RAW264.7 macrophages infected with S. Typhimurium, infected RAW264.7 cells, read-out: 50% cytotoxic concentration (CC50) toward macrophages", "protocol": "as §2"}, "[4]": {"test_system": "ROS levels in Salmonella-infected RAW264.7 cells", "test": "Analysis of ROS in macrophages (H2DCFDA)", "assay_type": "cell-based, murine", "details": "1 h; SW14 at concentrations up to 8 μM", "protocol": "RAW264.7 macrophages were seeded in 96-well black plates and infected by S. Typhimurium ATCC 14028 at an MOI of 25 for 1 h. After infection, the cells were washed, exposed to 100 mg/L gentamicin for 1 h, washed with warm Krebs-Ringer phosphate buffer (KRP buffer; 120 mM NaCl, 5 mM KCl, 1.7 mM KH2PO4, 8.3 mM Na2HPO4, 10 mM glucose, 1 mM CaCl2, 1.5 mM MgCl2, pH 7.3) and stained with H2DCFDA at 37°C with 5% CO2 for 45 min. The cells were then washed with KRP buffer and treated with SW14 or PMA at the desired concentrations in KRP buffer with 10% FBS. Fluorescence signals at 488/525 nm (excitation/emission) were measured using a SpectraMax M5 Microplate Reader (Molecular Devices)."}, "[5]": {"details": "Table S1(A), ATCC 14028, read-out: MIC"}, "[6]": {"details": "Table S2, CAMH medium, read-out: MIC"}, "[7]": {"details": "Table S2, LB medium, read-out: MIC"}, "[8]": {"details": "Table S2, LPM medium, read-out: MIC"}}, "note": "Read-outs that look alike come from different tables or passages of the source.", "data": [{"smiles": "CN(C)[C@@H]1C(O)=C(C(N)=O)C(=O)[C@@]2(O)C(O)=C3C(=O)c4c(O)cccc4[C@@](C)(O)[C@H]3C[C@@H]12", "note": "[Tetracycline]", "values": [{"measurement": "R/I/S", "setting": "S. Typhimurium 0911R", "value": "R"}, {"measurement": "R/I/S", "setting": "S. Typhimurium NL08.10", "value": "R"}, {"measurement": "MIC", "setting": "[1]; [5]", "value": 8, "unit": "µg/mL"}, {"measurement": "R/I/S", "setting": "[1]; Table S1(A)", "value": "I"}]}, {"smiles": "CC1(C)S[C@@H]2[C@H](NC(=O)[C@H](N)c3ccccc3)C(=O)N2[C@H]1C(=O)O", "note": "[Ampicillin]", "values": [{"measurement": "MIC", "setting": "S. Typhimurium 0911R", "value": "> 64", "unit": "µg/mL"}, {"measurement": "R/I/S", "setting": "S. Typhimurium 0911R", "value": "R"}, {"measurement": "MIC", "setting": "S. Typhimurium NL08.10", "value": "> 64", "unit": "µg/mL"}, {"measurement": "R/I/S", "setting": "S. Typhimurium NL08.10", "value": "R"}, {"measurement": "MIC", "setting": "[1]; [5]", "value": 16, "unit": "µg/mL"}, {"measurement": "MIC", "setting": "[1]; [6]", "value": 4, "unit": "µg/mL"}, {"measurement": "MIC", "setting": "[1]; [7]", "value": 4, "unit": "µg/mL"}, {"measurement": "MIC", "setting": "[1]; [8]", "value": 1, "unit": "µg/mL"}, {"measurement": "R/I/S", "setting": "[1]; Table S1(A)", "value": "I"}]}, {"smiles": "[H]/N=C(/N)N[C@H]1[C@H](O)[C@@H](O)[C@H](O[C@@H]2O[C@@H](C)[C@](O)(C=O)[C@H]2O[C@@H]2O[C@@H](CO)[C@H](O)[C@@H](O)[C@@H]2NC)[C@@H](N/C(N)=N\\[H])[C@@H]1O", "note": "[Streptomycin]", "values": [{"measurement": "MIC", "setting": "S. Typhimurium 0911R", "value": "> 64", "unit": "µg/mL"}, {"measurement": "MIC", "setting": "S. Typhimurium NL08.10", "value": "> 64", "unit": "µg/mL"}, {"measurement": "MIC", "setting": "[1]; [5]", "value": 32, "unit": "µg/mL"}]}, {"smiles": "CNC(C)C1CCC(N)C(OC2C(N)CC(N)C(OC3OCC(C)(O)C(NC)C3O)C2O)O1", "note": "(stereo not drawn) [Gentamicin, gentamicin]", "values": [{"measurement": "R/I/S", "setting": "S. Typhimurium 0911R", "value": "S"}, {"measurement": "MIC", "setting": "S. Typhimurium NL08.10", "value": 2, "unit": "µg/mL"}, {"measurement": "R/I/S", "setting": "S. Typhimurium NL08.10", "value": "S"}, {"measurement": "MIC", "setting": "S. Typhimurium SA10", "value": 0.5, "unit": "µg/mL"}, {"measurement": "R/I/S", "setting": "S. Typhimurium SA10", "value": "S"}, {"measurement": "MIC", "setting": "S. Typhimurium SB10", "value": 1, "unit": "µg/mL"}, {"measurement": "R/I/S", "setting": "S. Typhimurium SB10", "value": "S"}, {"measurement": "MIC", "setting": "[1]; [5]", "value": 2, "unit": "µg/mL"}, {"measurement": "MIC", "setting": "[1]; Table S1(B), ATCC 14028, read-out: MIC", "value": 2, "unit": "µg/mL"}, {"measurement": "R/I/S", "setting": "[1]; Table S1(A)", "value": "S"}, {"measurement": "R/I/S", "setting": "[1]; Table S1(B)", "value": "S"}]}, {"smiles": "CN1CCN(C2=Nc3ccccc3Oc3ccc(Cl)cc32)CC1", "note": "[Loxapine, loxapine]", "values": [{"measurement": "selectivity index (SI; CC50/EC50)", "setting": "[2]; CC50 RAW264.7 / EC50 intracellular Salmonella", "value": 16.3}, {"measurement": "EC50", "setting": "[2]; Salmonella enterica, RFP-expressing S. Typhimurium in RAW264.7, 24 h, with gentamicin 20 mg/L, HCA, read-out: 50% effective concentration (EC50) against intracellular Salmonella", "value": 5.4, "unit": "µM"}, {"measurement": "CC50 at 24 h", "setting": "[3]", "value": 88.2, "unit": "µM"}]}, {"smiles": "Cn1cnc(N)c2ncnc1-2", "note": "[3-MA, 3-methyladenine]", "values": [{"measurement": "relative number of intracellular bacteria", "setting": "[2]; 3-MA 10 mM, infected RAW264.7", "value": "increased significantly"}]}, {"smiles": "O=C(O)c1cn(C2CC2)c2cc(N3CCNCC3)c(F)cc2c1=O", "note": "[Ciprofloxacin, ciprofloxacin]", "values": [{"measurement": "survival of intracellular Salmonella in macrophages, antibiotic alone", "setting": "[2]; HCA", "value": "inhibited the survival of intracellular Salmonella in macrophages in a dose-dependent manner"}]}, {"smiles": "O=C(N[C@H](CO)[C@H](O)c1ccc([N+](=O)[O-])cc1)C(Cl)Cl", "note": "[Chloramphenicol]", "values": [{"measurement": "R/I/S", "setting": "S. Typhimurium 0911R", "value": "R"}, {"measurement": "MIC", "setting": "S. Typhimurium NL08.10", "value": 32, "unit": "µg/mL"}, {"measurement": "R/I/S", "setting": "S. Typhimurium NL08.10", "value": "R"}, {"measurement": "MIC", "setting": "[1]; [5]", "value": 16, "unit": "µg/mL"}, {"measurement": "R/I/S", "setting": "[1]; Table S1(A)", "value": "I"}]}, {"smiles": "CO[C@H]1/C=C/O[C@@]2(C)Oc3c(C)c(O)c4c(O)c(c(/C=N/N5CCN(C)CC5)c(O)c4c3C2=O)NC(=O)/C(C)=C\\C=C\\[C@H](C)[C@H](O)[C@@H](C)[C@@H](O)[C@@H](C)[C@H](OC(C)=O)[C@@H]1C", "note": "[Rifampicin]", "values": [{"measurement": "MIC", "setting": "[1]; [6]", "value": 16, "unit": "µg/mL"}, {"measurement": "MIC", "setting": "[1]; [7]", "value": 16, "unit": "µg/mL"}, {"measurement": "MIC", "setting": "[1]; [8]", "value": 4, "unit": "µg/mL"}]}, {"smiles": "C=CC1=C(C(=O)O)N2C(=O)[C@@H](NC(=O)/C(=N\\OCC(=O)O)c3csc(N)n3)[C@H]2SC1", "note": "[cefixime]", "values": [{"measurement": "survival of intracellular Salmonella in macrophages, antibiotic alone", "setting": "[2]; HCA", "value": "inhibited the survival of intracellular Salmonella in macrophages in a dose-dependent manner"}]}, {"smiles": "CN[C@H](CC(C)C)C(=O)N[C@H]1C(=O)N[C@@H](CC(N)=O)C(=O)N[C@H]2C(=O)N[C@H]3C(=O)N[C@H](C(=O)N[C@H](C(=O)O)c4cc(O)cc(O)c4-c4cc3ccc4O)[C@H](O)c3ccc(c(Cl)c3)Oc3cc2cc(c3O[C@@H]2O[C@H](CO)[C@@H](O)[C@H](O)[C@H]2O[C@H]2C[C@](C)(N)[C@H](O)[C@H](C)O2)Oc2ccc(cc2Cl)[C@H]1O", "note": "[Vancomycin]", "values": [{"measurement": "MIC", "setting": "[1]; Table S2, CAMH medium", "value": 2050, "unit": "µg/mL"}, {"measurement": "MIC", "setting": "[1]; Table S2, LB medium", "value": 512, "unit": "µg/mL"}, {"measurement": "MIC", "setting": "[1]; Table S2, LPM medium", "value": 128, "unit": "µg/mL"}]}, {"smiles": "CCCCCCCCCCCCCC(=O)O[C@@H]1[C@@H](C)[C@@]2(O)[C@@H](C=C(CO)C[C@]3(O)C(=O)C(C)=C[C@@H]23)[C@@H]2C(C)(C)[C@]12OC(C)=O", "note": "[PMA, phorbol 12-myristate 13-acetate]", "values": [{"measurement": "ROS level (H2DCFDA fluorescence signal) in infected macrophages", "setting": "[4]", "value": "significantly elevated"}]}, {"smiles": "CC1COc2c(N3CCN(C)CC3)c(F)cc3c(=O)c(C(=O)O)cn1c23", "note": "(stereo not drawn) [Ofloxacin]", "values": [{"measurement": "MIC", "setting": "S. Typhimurium SA10", "value": 8, "unit": "µg/mL"}, {"measurement": "R/I/S", "setting": "S. Typhimurium SA10", "value": "R"}, {"measurement": "MIC", "setting": "S. Typhimurium SB10", "value": 8, "unit": "µg/mL"}, {"measurement": "R/I/S", "setting": "S. Typhimurium SB10", "value": "R"}, {"measurement": "MIC", "setting": "[1]", "value": "< 0.125", "unit": "µg/mL"}, {"measurement": "R/I/S", "setting": "[1]; Table S1(B)", "value": "S"}]}]}
